Data reported in ChEMBL document CHEMBL5543075, “Phenoxytacrine derivatives: Low-toxicity neuroprotectants exerting affinity to ifenprodil-binding site and cholinesterase inhibition” (Eur J Med Chem, 2024).
Activity calls are given as the source filed them. The calls are words filed in the database; no cut-off is given here.

Columns and labels:
Cholinesterase = Cholinesterase (Homo sapiens, UniProt P06276); test: Inhibition of human BChE by spectrophotometric Ellman's method
Acetylcholinesterase = Acetylcholinesterase (Homo sapiens, UniProt P22303); test: Inhibition of human AChE by spectrophotometric Ellman's method
[1] = Cytotoxicity against CHO-K1 cells incubated for 24 hrs by MTT assay; format: toxicity, cell-based, Cricetulus griseus; details: Chinese hamster
[2] = molecular target: T1, Glutamate NMDA receptor; GRIN1/GRIN2B (Homo sapiens, UniProt Q05586+Q13224); test: Inhibition of recombinant human GluN1/GluN2B receptor expressed in HEK293 cells assessed as reduction in glutamate induced current at 1 uM at -60 mV holding potential by electrophysiology assay relative to control; format: cell-based
in vitro [3] = details: human, liver microsomes
Description: Metabolic stability in human liver microsomes assessed as half life at 3 uM measured upto 45 min in presence of NADPH regenerating system by LC-MS analysis

in vitro [4] = details: human, liver microsomes; remark: listed apart in the source
Description: Metabolic stability in human liver microsomes assessed as intrinsic clearance at 3 uM measured upto 45 min in presence of NADPH regenerating system by LC-MS analysis

Rattus norvegicus [5] = test: Antipsychotic activity in Wistar rat assessed as effect on pre-pulse inhibition of acoustic startle response at 2 mg/kg, ip measured after 10 mins by pre-pulse inhibition test; format: functional, organism-based
Rattus norvegicus [6] = test: Antialzheimer activity against scopolamine-induced cognitive impairment in Wistar rat assessed as decrease in latency to reach platform at 2 mg/kg, ip measured upto 4 days by morris water maze test; format: functional, organism-based; details: time <= 4.0 day
[7] = Toxicity in Wistar rat assessed as no observed adverse effect level (NOAEL) at 10 mg/kg, ip; format: organism-based; details: in vivo
[8] = Inhibition of recombinant human GluN1 deltaATD/GluN2B receptor expressed in HEK293 cells assessed as reduction in glutamate induced current at -60 mV holding potential by electrophysiology assay; format: cell-based
[9] = Toxicity in Wistar rat assessed as no observed adverse effect level (NOAEL) at 20 mg/kg, ip measured after 10 to 15 mins; format: organism-based; details: in vivo, time 10-15 min
Hippocampal neurone = test: Neuroprotective activity against NMDA-induced cell injury in rat Hippocampal neuron cells assessed as decrease in damage score at 30 uM measured after 24 hrs by FJB staining based microscopy; format: functional
Rattus norvegicus [10] = test: Antipsychotic activity in Wistar rat assessed as effect on locomotor activity at 2 mg/kg, ip measured after 10 mins by open field test; format: functional, organism-based
[11] = molecular target: Glutamate NMDA receptor; GRIN1/GRIN2A (Homo sapiens, UniProt Q05586+Q12879); test: Inhibition of recombinant wild type human GluN1/GluN2A receptor expressed in HEK293 cells assessed as reduction in glutamate induced current at -60 mV holding potential by electrophysiology assay; format: cell-based
[12] = molecular target: T1, Glutamate NMDA receptor; GRIN1/GRIN2B; test: Inhibition of recombinant wild type human GluN1/GluN2B receptor expressed in HEK293 cells assessed as reduction in glutamate induced current at -60 mV holding potential by electrophysiology assay; format: cell-based

Chain of Acetylcholinesterase (P22303 whole entry): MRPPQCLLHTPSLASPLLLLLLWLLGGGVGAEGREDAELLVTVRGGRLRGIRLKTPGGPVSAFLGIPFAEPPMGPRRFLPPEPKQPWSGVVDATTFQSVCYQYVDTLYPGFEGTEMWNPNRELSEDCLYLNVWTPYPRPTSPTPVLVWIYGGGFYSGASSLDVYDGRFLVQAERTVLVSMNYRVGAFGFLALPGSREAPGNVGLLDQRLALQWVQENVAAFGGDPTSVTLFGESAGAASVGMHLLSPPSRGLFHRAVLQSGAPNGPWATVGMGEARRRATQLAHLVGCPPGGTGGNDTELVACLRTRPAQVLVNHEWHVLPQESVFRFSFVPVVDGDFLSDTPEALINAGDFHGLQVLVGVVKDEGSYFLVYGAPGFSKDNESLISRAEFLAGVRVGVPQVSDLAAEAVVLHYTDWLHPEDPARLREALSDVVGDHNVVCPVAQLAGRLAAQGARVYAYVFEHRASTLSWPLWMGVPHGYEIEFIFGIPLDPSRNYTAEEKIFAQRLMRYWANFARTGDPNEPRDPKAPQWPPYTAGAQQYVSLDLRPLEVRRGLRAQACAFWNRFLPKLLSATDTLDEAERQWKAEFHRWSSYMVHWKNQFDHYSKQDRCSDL
Chain of Cholinesterase (P06276 whole entry): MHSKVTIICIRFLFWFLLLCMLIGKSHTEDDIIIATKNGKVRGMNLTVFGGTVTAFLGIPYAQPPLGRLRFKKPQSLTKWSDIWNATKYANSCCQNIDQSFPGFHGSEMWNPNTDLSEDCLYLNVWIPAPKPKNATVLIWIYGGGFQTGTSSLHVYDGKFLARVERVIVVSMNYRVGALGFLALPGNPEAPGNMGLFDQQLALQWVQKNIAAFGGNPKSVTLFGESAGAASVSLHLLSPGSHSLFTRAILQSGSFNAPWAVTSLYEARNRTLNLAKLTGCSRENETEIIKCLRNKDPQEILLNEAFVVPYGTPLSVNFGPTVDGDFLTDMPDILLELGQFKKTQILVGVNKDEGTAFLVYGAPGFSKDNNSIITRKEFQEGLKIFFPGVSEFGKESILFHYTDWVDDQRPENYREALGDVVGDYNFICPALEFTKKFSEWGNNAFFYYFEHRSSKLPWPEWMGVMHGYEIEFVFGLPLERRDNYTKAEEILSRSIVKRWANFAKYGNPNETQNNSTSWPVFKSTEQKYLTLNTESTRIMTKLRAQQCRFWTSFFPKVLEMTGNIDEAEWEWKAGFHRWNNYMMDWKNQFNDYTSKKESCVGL
Chain of Glutamate NMDA receptor; GRIN1/GRIN2A (Q12879 whole entry, other chains not shown): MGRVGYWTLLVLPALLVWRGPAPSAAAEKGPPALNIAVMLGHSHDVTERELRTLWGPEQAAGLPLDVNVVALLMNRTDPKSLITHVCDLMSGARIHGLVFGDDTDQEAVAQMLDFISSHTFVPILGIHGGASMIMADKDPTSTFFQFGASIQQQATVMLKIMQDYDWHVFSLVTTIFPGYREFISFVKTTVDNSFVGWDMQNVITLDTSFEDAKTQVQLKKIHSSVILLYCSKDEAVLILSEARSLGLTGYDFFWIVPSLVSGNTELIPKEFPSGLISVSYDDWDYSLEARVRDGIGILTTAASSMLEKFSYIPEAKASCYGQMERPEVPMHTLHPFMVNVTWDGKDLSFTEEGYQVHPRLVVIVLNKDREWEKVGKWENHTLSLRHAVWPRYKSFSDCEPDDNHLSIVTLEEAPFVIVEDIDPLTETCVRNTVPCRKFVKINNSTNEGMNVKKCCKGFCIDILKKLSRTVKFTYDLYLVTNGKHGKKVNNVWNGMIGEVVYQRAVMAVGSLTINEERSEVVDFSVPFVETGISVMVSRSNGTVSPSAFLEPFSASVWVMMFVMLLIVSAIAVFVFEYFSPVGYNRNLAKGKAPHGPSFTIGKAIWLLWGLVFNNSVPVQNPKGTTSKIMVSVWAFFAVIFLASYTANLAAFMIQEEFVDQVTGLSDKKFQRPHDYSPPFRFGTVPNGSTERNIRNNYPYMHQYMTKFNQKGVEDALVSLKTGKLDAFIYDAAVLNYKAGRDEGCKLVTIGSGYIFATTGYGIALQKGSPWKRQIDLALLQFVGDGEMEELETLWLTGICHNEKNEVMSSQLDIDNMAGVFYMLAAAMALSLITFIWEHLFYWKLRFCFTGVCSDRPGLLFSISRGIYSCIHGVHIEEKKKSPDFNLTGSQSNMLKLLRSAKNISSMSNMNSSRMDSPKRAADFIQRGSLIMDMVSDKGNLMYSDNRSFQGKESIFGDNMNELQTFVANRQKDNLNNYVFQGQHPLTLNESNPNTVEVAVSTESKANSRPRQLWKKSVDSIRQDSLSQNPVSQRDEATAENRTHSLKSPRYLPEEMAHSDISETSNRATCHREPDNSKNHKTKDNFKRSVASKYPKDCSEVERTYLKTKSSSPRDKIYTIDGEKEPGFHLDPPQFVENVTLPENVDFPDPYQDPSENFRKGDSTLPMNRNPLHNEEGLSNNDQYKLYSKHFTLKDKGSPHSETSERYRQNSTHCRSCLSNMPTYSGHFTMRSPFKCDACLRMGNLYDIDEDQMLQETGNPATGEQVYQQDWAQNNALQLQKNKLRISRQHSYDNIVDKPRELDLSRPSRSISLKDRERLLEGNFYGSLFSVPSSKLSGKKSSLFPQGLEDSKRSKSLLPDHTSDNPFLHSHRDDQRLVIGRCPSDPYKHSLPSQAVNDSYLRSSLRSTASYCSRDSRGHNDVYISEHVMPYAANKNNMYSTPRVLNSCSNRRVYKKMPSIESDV

| SMILES | IC50 (Cholinesterase) [µM] | IC50 (Acetylcholinesterase) [µM] | IC50 at 24 h [1] [µM] | inhibition [2] [%] | further results |
| --- | --- | --- | --- | --- | --- |
| Cc1ccc(Oc2ccc3nc4c(c(N)c3c2)CCC4)cc1 | 7.34 | 8.36 | 76 | 18.7 |  |
| Nc1c2c(nc3ccc(Oc4ccc(Cl)cc4)cc13)CCCC2 | 3.32 | 2.92 | 12 | 14.2 |  |
| Cc1cc(C)cc(Oc2ccc3nc4c(c(N)c3c2)CCCC4)c1 | 3.88 | 1.62 | 13 | 8.2 |  |
| Nc1c2c(nc3ccc(Oc4ccc(Cl)cc4)cc13)CCC2 | 3.6 | 5.07 | 28 | 8.7 |  |
| CC(=O)c1ccc(Oc2ccc3nc4c(c(N)c3c2)CCC4)cc1 | 16.5 | 5.76 | 69 | 9.5 |  |
| COc1ccc(Oc2ccc3nc4c(c(N)c3c2)CCC4)cc1 | 14.5 | 4.24 | 81 | 22.7 |  |
| Cc1cccc(Oc2ccc3nc4c(c(N)c3c2)CCCCC4)c1 | 2.74 | 12.3 | 13 | 14.8 |  |
| Cc1ccc(Oc2ccc3nc4c(c(N)c3c2)CCCCC4)cc1 | 2.78 | 3.79 | 140 | 11.9 |  |
| COc1ccccc1Oc1ccc2nc3c(c(N)c2c1)CCCCC3 | 5.48 | 9.62 | 74 | 57.6 |  |
| CC(C)(C)c1ccc(Oc2ccc3nc4c(c(N)c3c2)CCCCC4)cc1 | 2.51 | 71.6 | 9 | 10.1 |  |
| Cc1cccc(Oc2ccc3nc4c(c(N)c3c2)CCCC4)c1 | 3.66 | 9.19 | 20 | 21.2 |  |
| Cc1ccccc1Oc1ccc2nc3c(c(N)c2c1)CCCC3 | 4.15 | 3.78 | 25 | 19.3 |  |
| COc1ccc(Oc2ccc3nc4c(c(N)c3c2)CCCC4)cc1 | 7.26 | 2.9 | 26 | 33.2 |  |
| CC(C)(C)c1ccc(Oc2ccc3nc4c(c(N)c3c2)CCCC4)cc1 | 6.61 | 1.96 | 5.1 | 16 |  |
| COc1ccccc1Oc1ccc2nc3c(c(N)c2c1)CCC3.Cl | 5.48 | 8.52 | 68 | 35 | half-life at 0.75 h, 3 µM (in vitro [3]): 69.3 min; microsomal CLint at 0.75 h, 3 µM (in vitro [4]): 20 µL/min/mg; Activity (Rattus norvegicus [5]): inactive; Activity (Rattus norvegicus [6]): Active; Activity [7]: Non-Toxic; IC50 [8]: 5.2 µM; Activity [9]: Toxic; Activity (Hippocampal neurone): Active; Activity (Rattus norvegicus [10]): inactive; IC50 [11]: 5.1 µM; IC50 [12]: 2400 nM |
| Nc1c2c(nc3ccc(Oc4ccccc4)cc13)CCC2 | 2.93 | 6.42 | 55 | 30.3 |  |
